Data taken from patent US10681908B2, “Molecules having pesticidal utility, and intermediates, compositions, and processes, related thereto” (Dow AgroSciences LLC, priority 2016, dated 2020).

Legend:
[1] = tested on: Beet Armyworm (Spodoptera exigua, LAPHEG); experiment: Bioassay on Beet Armyworm (BAW), 128-well diet tray assay; format: in vivo; details: for mortality at 50 µg/cm2: 168 h, 50 μg/cm^2 on artificial diet, second instar larvae, five to seven days, 25° C., read-out: BAW % Control (or Mortality) rating
Method: (§1) Example A: Bioassays on Beet Armyworm (Spodoptera Exigua, LAPHEG) (“BAW”), Corn Earworm (Helicoverpa zea, HELIZE) (“CEW”), and Cabbage Looper (Trichoplusia ni, TRIPNI) (“CL”)
(§2) Certain molecules disclosed in this document were tested against BAW, CEW, and CL using procedures described in the following examples. In the reporting of the results, the “BAW, CEW, & CL Rating Table” was used (See Table Section).
Bioassays on BAW were conducted using a 128-well diet tray assay. One to five second instar BAW larvae were placed in each well (3 mL) of the diet tray that had been previously filled with 1 mL of artificial diet to which 50 μg/cm^2 of the test molecule (dissolved in 50 μL of 90:10 acetone-water mixture) had been applied (to each of eight wells) and then allowed to dry. Trays were covered with a clear self-adhesive cover and held at 25° C., 14:10 light-dark for five to seven days. Percent mortality was recorded for the larvae in each well; activity in the eight wells was then averaged. The results are indicated in the table entitled “Table ABC: Biological Results” (See Table Section).
(§3) Bioassays on BAW and CL were conducted according to the procedures outlined in Example A: Bioassays on Beet Armyworm (“BAW”) and Cabbage Looper (“CL”) using the indicated concentrations.

[2] = tested on: Cabbage Looper (Trichoplusia ni, TRIPNI); experiment: Bioassay on Cabbage Looper (CL), 128-well diet tray assay; format: in vivo; details: for mortality at 50 µg/cm2: 168 h, 50 μg/cm^2 on artificial diet, second instar larvae, five to seven days, 25° C., read-out: CL % Control (or Mortality) rating
Method: as §1, §2
Bioassays on CL were conducted using a 128-well diet tray assay. One to five second instar CL larvae were placed in each well (3 mL) of the diet tray that had been previously filled with 1 mL of artificial diet to which 50 μg/cm^2 of the test molecule (dissolved in 50 μL of 90:10 acetone-water mixture) had been applied (to each of eight wells) and then allowed to dry. Trays were covered with a clear self-adhesive cover and held at 25° C., 14:10 light-dark for five to seven days. Percent mortality was recorded for the larvae in each well; activity in the eight wells was then averaged. The results are indicated in the table entitled “Table ABC: Biological Results” (See Table Section).
as §3

**Q.** With `C[C@H](CSCC(F)(F)F)NC(=O)c1ccc(/C(F)=C/C(c2ccc(Br)c(Br)c2)C(F)(F)F)cc1C(F)(F)F` (stereo partly drawn) [F62] as the compound, how does the mortality at 50 µg/cm2 [1] read?
**A.** 50 to 100%

**Q.** What about the mortality at 50 µg/cm2 [2] of the same compound?
**A.** 50 to 100%

**Q.** Which mortality at 50 µg/cm2 [1] does the source give for `O=C(NCCSCC(F)(F)F)c1ccc(/C(F)=C/C(c2cc(Cl)c(Cl)c(Cl)c2)C(F)(F)F)cc1C(F)(F)F` (stereo not drawn) [F51, (Z)-4-(1,4,4,4-tetrafluoro-3-(3,4,5-trichlorophenyl)but-1-en-1-yl)-N-(2-((2,2,2-trifluoroethyl)thio)ethyl)-2-(trifluoromethyl)benzamide] here?
**A.** 50 to 100%

**Q.** What about the mortality at 50 µg/cm2 [2] of the same compound?
**A.** 50 to 100%

**Q.** For `C[C@H](CS(=O)(=O)CC(F)(F)F)NC(=O)c1ccc(/C(F)=C/C(c2ccc(Cl)c(OC(F)(F)F)c2)C(F)(F)F)cc1C(F)(F)F` (stereo partly drawn) [F127, 4-((Z)-3-(4-Chloro-3-(trifluoromethoxy)phenyl)-1,4,4,4-tetrafluorobut-1-en-1-yl)-N—((R)-1-((2,2,2-trifluoroethyl)sulfonyl)propan-2-yl)-2-(trifluoromethyl)benzamide], which mortality at 50 µg/cm2 [1] is on record?
**A.** 50 to 100%

**Q.** What about the mortality at 50 µg/cm2 [2] of the same compound?
**A.** 50 to 100%

**Q.** How did the mortality at 50 µg/cm2 [1] turn out when `C[C@H](CS(=O)(=O)CC(F)(F)F)NC(=O)c1ccc(/C(F)=C/C(c2cc(F)c(F)c(Br)c2)C(F)(F)F)cc1C(F)(F)F` (stereo partly drawn) [F94, 4-((Z)-3-(3-Bromo-4,5-difluorophenyl)-1,4,4,4-tetrafluorobut-1-en-1-yl)-N—((R)-1-((2,2,2-trifluoroethyl)sulfonyl)propan-2-yl)-2-(trifluoromethyl)benzamide] was run?
**A.** 50 to 100%

**Q.** What about the mortality at 50 µg/cm2 [2] of the same compound?
**A.** 50 to 100%

**Q.** With `C=Cc1cc(C(/C=C(\F)c2ccc(C(=O)N[C@H](C)CS(=O)(=O)CC(F)(F)F)c(C(F)(F)F)c2)C(F)(F)F)cc(Cl)c1Cl` (stereo partly drawn) [F73, 4-((Z)-3-(3,4-dichloro-5-vinylphenyl)-1,4,4,4-tetrafluorobut-1-en-1-yl)-N—((R)-1-((2,2,2-trifluoroethyl)sulfonyl)propan-2-yl)-2-(trifluoromethyl)benzamide] as the compound, how does the mortality at 50 µg/cm2 [1] read?
**A.** 50 to 100%

**Q.** What about the mortality at 50 µg/cm2 [2] of the same compound?
**A.** 50 to 100%

**Q.** Which mortality at 50 µg/cm2 [1] does the source give for `CC(CNC(=O)c1ccc(/C(F)=C/C(c2cc(Cl)c(Cl)c(Cl)c2)C(F)(F)F)cc1C(F)(F)F)[S+](C)[O-]` (stereo not drawn) [F90, (Z)—N-(2-(Methylsulfinyl)propyl)-4-(1,4,4,4-tetrafluoro-3-(3,4,5-trichlorophenyl)but-1-en-1-yl)-2-(trifluoromethyl)benzamide] here?
**A.** 50 to 100%

**Q.** What about the mortality at 50 µg/cm2 [2] of the same compound?
**A.** 50 to 100%

**Q.** What does the source list for `C[C@H](CS(=O)(=O)CC(F)(F)F)NC(=O)c1ccc(/C(F)=C/C(c2ccc(Cl)c(Br)c2)C(F)(F)F)cc1C(F)(F)F` (stereo partly drawn) [F79, 4-((Z)-3-(3-Bromo-4-chlorophenyl)-1,4,4,4-tetrafluorobut-1-en-1-yl)-N—((R)-1-((2,2,2-trifluoroethyl)sulfonyl)propan-2-yl)-2-(trifluoromethyl)benzamide]?
**A.** mortality at 50 µg/cm2 [1]: 50 to 100%; mortality at 50 µg/cm2 [2]: 50 to 100%

**Q.** With `C[C@H](CS(=O)(=O)CC(F)(F)F)NC(=O)c1ccc(/C(F)=C/C(c2cc(Cl)cc(OC(F)(F)F)c2)C(F)(F)F)cc1C(F)(F)F` (stereo partly drawn) [F110, 4-((Z)-3-(3-Chloro-5-(trifluoromethoxy)phenyl)-1,4,4,4-tetrafluorobut-1-en-1-yl)-N—((R)-1-((2,2,2-trifluoroethyl)sulfonyl)propan-2-yl)-2-(trifluoromethyl)benzamide] as the compound, how does the mortality at 50 µg/cm2 [1] read?
**A.** 50 to 100%

**Q.** What about the mortality at 50 µg/cm2 [2] of the same compound?
**A.** 50 to 100%

**Q.** How did the mortality at 50 µg/cm2 [1] turn out when `C[C@H](CSCC(F)(F)F)NC(=O)c1ccc(/C(F)=C/C(c2cc(F)c(Cl)c(C(F)(F)F)c2)C(F)(F)F)cc1C(F)(F)F` (stereo partly drawn) [F117, 4-((Z)-3-(4-Chloro-3-fluoro-5-(trifluoromethyl)phenyl)-1,4,4,4-tetrafluorobut-1-en-1-yl)-N—((R)-1-((2,2,2-trifluoroethyl)thio)propan-2-yl)-2-(trifluoromethyl)benzamide] was run?
**A.** 50 to 100%

**Q.** What about the mortality at 50 µg/cm2 [2] of the same compound?
**A.** 50 to 100%

**Q.** How did the mortality at 50 µg/cm2 [1] turn out when `C[C@H](CSCC(F)F)NC(=O)c1ccc(/C(F)=C/C(c2cc(Cl)c(Cl)c(Cl)c2)C(F)(F)F)cc1C(F)(F)F` (stereo partly drawn) [F82, N—((R)-1-((2,2-Difluoroethyl)thio)propan-2-yl)-4-((Z)-1,4,4,4-tetrafluoro-3-(3,4,5-trichlorophenyl)but-1-en-1-yl)-2-(trifluoromethyl)benzamide] was run?
**A.** 50 to 100%

**Q.** What about the mortality at 50 µg/cm2 [2] of the same compound?
**A.** 50 to 100%

**Q.** Which results are given for `C=Cc1cc(/C(F)=C/C(c2cc(Cl)c(Cl)c(Cl)c2)C(F)(F)F)ccc1C(=O)N[C@H](C)CS(=O)(=O)CC(F)(F)F` (stereo partly drawn) [F116]?
**A.** mortality at 50 µg/cm2 [1]: 50 to 100%; mortality at 50 µg/cm2 [2]: 50 to 100%

**Q.** For `C=C(C)c1cc(C(/C=C(\F)c2ccc(C(=O)N[C@H](C)CS(=O)(=O)CC(F)(F)F)c(C(F)(F)F)c2)C(F)(F)F)cc(Cl)c1Cl` (stereo partly drawn) [F114, 4-((Z)-3-(3,4-Dichloro-5-(prop-1-en-2-yl)phenyl)-1,4,4,4-tetrafluorobut-1-en-1-yl)-N—((R)-1-((2,2,2-trifluoroethyl)sulfonyl)propan-2-yl)-2-(trifluoromethyl)benzamide], which mortality at 50 µg/cm2 [1] is on record?
**A.** 50 to 100%

**Q.** What about the mortality at 50 µg/cm2 [2] of the same compound?
**A.** 50 to 100%

**Q.** What does the source list for `O=C(NCC[S+]([O-])CCF)c1ccc(/C(F)=C/C(c2cc(Cl)c(Cl)c(Cl)c2)C(F)(F)F)cc1C(F)(F)F` (stereo not drawn) [F138, (Z)—N-(2-((2-Fluoroethyl)sulfinyl)ethyl)-4-(1,4,4,4-tetrafluoro-3-(3,4,5-trichlorophenyl)but-1-en-1-yl)-2-(trifluoromethyl)benzamide]?
**A.** mortality at 50 µg/cm2 [1]: 50 to 100%; mortality at 50 µg/cm2 [2]: 50 to 100%

**Q.** Which mortality at 50 µg/cm2 [1] does the source give for `C[C@H](CS(=O)(=O)CC(F)(F)F)NC(=O)c1ccc(/C(F)=C/C(c2cc(Cl)cc(C(F)(F)F)c2)C(F)(F)F)cc1C(F)(F)F` (stereo partly drawn) [F81, 4-((Z)-3-(3-Chloro-5-(trifluoromethyl)phenyl)-1,4,4,4-tetrafluorobut-1-en-1-yl)-N—((R)-1-((2,2,2-trifluoroethyl)sulfonyl)propan-2-yl)-2-(trifluoromethyl)benzamide] here?
**A.** 50 to 100%

**Q.** And the mortality at 50 µg/cm2 [2]?
**A.** 50 to 100%

**Q.** For `C[C@H](CSCC(F)(F)F)NC(=O)c1ccc(/C(F)=C/C(c2cc(Cl)c(Cl)c(Cl)c2)C(F)(F)F)cc1Br` (stereo partly drawn) [F7, 2-Bromo-4-((Z)-1,4,4,4-tetrafluoro-3-(3,4,5-trichlorophenyl)but-1-en-1-yl)-N—((R)-1-((2,2,2-trifluoroethyl)thio)propan-2-yl)benzamide], which mortality at 0.05 µg/cm2 ([1]; 0.05 μg/cm^2, Table CD2 comparative data, read-out: Percent control (or mortality) BAW) is on record?
**A.** 0%

**Q.** What about the mortality at 0.5 µg/cm2 ([1]; 0.5 μg/cm^2, Table CD2 comparative data, read-out: Percent control (or mortality) BAW) of the same compound?
**A.** 100%

**Q.** And the mortality at 5 µg/cm2 ([1]; 5 μg/cm^2, Table CD2 comparative data, read-out: Percent control (or mortality) BAW)?
**A.** 100%

**Q.** And the mortality at 50 µg/cm2 [1]?
**A.** 50 to 100%

**Q.** What about the mortality at 0.05 µg/cm2 ([2]; 0.05 μg/cm^2, Table CD2 comparative data, read-out: Percent control (or mortality) CL) of the same compound?
**A.** 0%

**Q.** What about the mortality at 0.5 µg/cm2 ([2]; 0.5 μg/cm^2, Table CD2 comparative data, read-out: Percent control (or mortality) CL) of the same compound?
**A.** 56%

**Q.** And the mortality at 5 µg/cm2 ([2]; 5 μg/cm^2, Table CD2 comparative data, read-out: Percent control (or mortality) CL)?
**A.** 100%

**Q.** And the mortality at 50 µg/cm2 [2]?
**A.** 50 to 100%

**Q.** Which mortality at 50 µg/cm2 [1] does the source give for `C[C@H](CSCC(F)(F)F)NC(=O)c1ccc(/C(F)=C/C(c2ccc(Cl)c(Cl)c2)C(C)(F)F)cc1C(F)(F)F` (stereo partly drawn) [F57, 4-((Z)-3-(3,4-Dichlorophenyl)-1,4,4-trifluoropent-1-en-1-yl)-N—((R)-1-((2,2,2-trifluoroethyl)thio)propan-2-yl)-2-(trifluoromethyl)benzamide] here?
**A.** 50 to 100%

**Q.** What about the mortality at 50 µg/cm2 [2] of the same compound?
**A.** 50 to 100%

**Q.** `Cc1cc(/C(F)=C/C(c2cc(Cl)c(Cl)c(Cl)c2)C(F)(F)F)ccc1C(=O)N[C@H](C)CS(=O)(=O)CC(F)(F)F` (stereo partly drawn) [F6, 2-Methyl-4-((Z)-1,4,4,4-tetrafluoro-3-(3,4,5-trichlorophenyl)but-1-en-1-yl)-N—((R)-1-((2,2,2-trifluoroethyl)sulfonyl)propan-2-yl)benzamide] was tested. Which mortality at 50 µg/cm2 [1] did it give?
**A.** 50 to 100%

**Q.** What about the mortality at 50 µg/cm2 [2] of the same compound?
**A.** 50 to 100%

**Q.** `C[C@H](CS(=O)(=O)CC(F)(F)F)NC(=O)c1ccc(/C(F)=C/[C@H](c2cc(Cl)c(Cl)c(Cl)c2)C(F)(F)F)cc1C(F)(F)F` [F72, 4-((R,Z)-1,4,4,4-tetrafluoro-3-(3,4,5-trichlorophenyl)but-1-en-1-yl)-N—((R)-1-((2,2,2-trifluoroethyl)sulfonyl)propan-2-yl)-2-(trifluoromethyl)benzamide] was tested. Which mortality at 50 µg/cm2 [1] did it give?
**A.** 50 to 100%

**Q.** And the mortality at 50 µg/cm2 [2]?
**A.** 50 to 100%
